# Target: T1, recombinant human Meningioma Expressed Antigen 5 (MGEA5), also referred to as O-GlcNAcase (OGA) (Homo sapiens, UniProt O60502)
# T1 construct: Full length OGA enzyme was purchased at OriGene (cat #TP322411); purchased OriGene TP322411
# T1 sequence (O60502 1-916): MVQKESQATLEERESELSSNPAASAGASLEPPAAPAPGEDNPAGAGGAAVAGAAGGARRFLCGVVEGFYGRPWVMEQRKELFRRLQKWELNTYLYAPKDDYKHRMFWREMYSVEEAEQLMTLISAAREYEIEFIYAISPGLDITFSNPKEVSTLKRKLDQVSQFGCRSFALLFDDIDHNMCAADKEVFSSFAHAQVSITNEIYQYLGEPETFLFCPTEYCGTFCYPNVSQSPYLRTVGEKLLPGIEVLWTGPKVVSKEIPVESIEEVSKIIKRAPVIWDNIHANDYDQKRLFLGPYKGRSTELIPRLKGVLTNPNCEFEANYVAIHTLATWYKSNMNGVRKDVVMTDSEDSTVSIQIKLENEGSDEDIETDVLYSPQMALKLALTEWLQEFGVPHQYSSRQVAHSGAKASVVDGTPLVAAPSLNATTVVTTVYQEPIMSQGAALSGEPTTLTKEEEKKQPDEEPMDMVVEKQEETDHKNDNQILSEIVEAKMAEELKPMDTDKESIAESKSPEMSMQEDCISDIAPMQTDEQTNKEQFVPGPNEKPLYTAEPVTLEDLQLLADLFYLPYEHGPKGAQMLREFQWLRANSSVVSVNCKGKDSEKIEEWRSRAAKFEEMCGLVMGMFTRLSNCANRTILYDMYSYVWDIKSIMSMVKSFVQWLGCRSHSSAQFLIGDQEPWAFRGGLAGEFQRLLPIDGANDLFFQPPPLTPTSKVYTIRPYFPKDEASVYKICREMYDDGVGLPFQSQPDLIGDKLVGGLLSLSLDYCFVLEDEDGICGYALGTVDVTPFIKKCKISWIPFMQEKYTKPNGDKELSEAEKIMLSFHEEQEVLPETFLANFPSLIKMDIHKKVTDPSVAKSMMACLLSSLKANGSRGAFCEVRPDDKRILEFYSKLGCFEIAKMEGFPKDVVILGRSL
# Test: OGA biochemical assay (inhibition of FM-GlcNAc hydrolysis, fluorescence)
# Details: FM-GlcNAc substrate, 6 h at room temperature, read-out: Enzymatic hOGA, pIC50 (converted)
# How it was run: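 Full-length OGA (2 nM) pre-incubated 60 min at room temperature with compound, then FM-GlcNAc (100 uM final) hydrolysed 6 h at room temperature in 200 mM citrate/phosphate pH 7.2 with 0.005% Tween-20. Stopped with carbonate pH 11.0; fluorescein read at ex 485/em 538 nm. IC50 and Hill coefficient from curve fit between no-inhibitor and saturating-standard controls.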
row,IC50 [nM],SMILES
1,6.31,Cc1cc(C2CCCN(C(C)c3cc4nc(C)sc4cc3F)C2)cc(C)n1 (centres unmarked) [Compound 89]
2,3.98,Cc1cc(OC[C@H]2CCCN(C(C)c3nc4nc(C)sc4cc3F)C2)cc(C)n1 (some centres unmarked) [Compound 91]
3,39.8,Cc1cc(O[C@@H]2CCN(C(C)c3nc4nc(C)sc4cc3F)C2)cc(C)n1 (some centres unmarked) [Compound 92]
4,2.51,Cc1cc(OC[C@H]2CCCN(C(C)c3cc4nc(C)sc4cc3F)C2)cc(C)n1 (some centres unmarked) [Compound 98]
5,398,Cc1cc(C[C@H]2CCN(C(C)c3cnc4[nH]c(C)nc4c3)C2)cc(C)n1 (some centres unmarked) [Compound 102]
6,501,Cc1cc(C[C@H]2CCN(C(C)c3cnc4[nH]c(C)nc4c3)C2)cc(C(F)(F)F)n1 (some centres unmarked) [Compound 104]
7,501,Cc1cc(NCC2CCCN(C(C)c3ccc4sc(C)nc4n3)C2)cc(C)n1 (centres unmarked) [Compound 105]
8,63.1,COc1cc(CN[C@H]2CCCN(C(C)c3ccc4sc(C)nc4n3)C2)cc(C)n1 (some centres unmarked) [Compound 107]

# Same assay, conditions: FM-GlcNAc substrate, maximal effect, read-out: Enzymatic Emax (%)
row,Emax [%],SMILES
1,102,Cc1cc(C2CCCN(C(C)c3cc4nc(C)sc4cc3F)C2)cc(C)n1 (centres unmarked) [Compound 89]
2,101,Cc1cc(OC[C@H]2CCCN(C(C)c3nc4nc(C)sc4cc3F)C2)cc(C)n1 (some centres unmarked) [Compound 91]
3,99,Cc1cc(O[C@@H]2CCN(C(C)c3nc4nc(C)sc4cc3F)C2)cc(C)n1 (some centres unmarked) [Compound 92]
4,102,Cc1cc(OC[C@H]2CCCN(C(C)c3cc4nc(C)sc4cc3F)C2)cc(C)n1 (some centres unmarked) [Compound 98]
5,96,Cc1cc(C[C@H]2CCN(C(C)c3cnc4[nH]c(C)nc4c3)C2)cc(C)n1 (some centres unmarked) [Compound 102]
6,94,Cc1cc(C[C@H]2CCN(C(C)c3cnc4[nH]c(C)nc4c3)C2)cc(C(F)(F)F)n1 (some centres unmarked) [Compound 104]
7,94,Cc1cc(NCC2CCCN(C(C)c3ccc4sc(C)nc4n3)C2)cc(C)n1 (centres unmarked) [Compound 105]
8,93,COc1cc(CN[C@H]2CCCN(C(C)c3ccc4sc(C)nc4n3)C2)cc(C)n1 (some centres unmarked) [Compound 107]

# Target: T2, OGA (Homo sapiens, UniProt O60502)
# T2 construct: HEK293 cells inducible for P301L mutant human Tau (isoform 2N4R) were established at Janssen; endogenous in cells; host or cells: HEK293 cells inducible for P301L mutant human Tau (2N4R)
# T2 sequence (O60502 1-916): T1 sequence (O60502 1-916)
# Test: OGA cellular assay (ICC detection of O-GlcNAcylated proteins in HEK293 cells inducible for P301L mutant human Tau)
# Assay type: cell-based
# Details: HEK293, HEK293 cells inducible for P301L mutant human Tau, maximum = Thiamet G 200 uM
# Experimental: HEK293 cells inducible for P301L mutant human Tau (isoform 2N4R) were established at Janssen. Thiamet-G was used for both plate validation (high control) and as reference compound (reference EC50 assay validation). OGA inhibition is evaluated through the immunocytochemical (ICC) detection of O-GlcNAcylated proteins by the use of a monoclonal antibody (CTD110.6; Cell Signaling, #9875) detecting 0-GlcNAcylated residues as previously described (Dorfmueller et al. 2010 Chemistry & biology, 17:1250). Inhibition of OGA will result in an increase of O-GlcNAcylated protein levels resulting in an increased signal in the experiment. Cell nuclei are stained with Hoechst to give a cell culture quality control and a rough estimate of immediate compounds toxicity, if any. ICC pictures are imaged with a Perkin Elmer Opera Phenix plate microscope and quantified with the provided software Perkin Elmer Harmony 4.1.
# Cells were propagated in DMEM high Glucose (Sigma, #D5796) following standard procedures. 2 days before the cell assay cells are split, counted and seeded in Poly-D-Lysine (PDL) coated 96-wells (Greiner, #655946) plate at a cell density of 12,000 cells per cm^2 (4,000 cells per well) in 100 μl of Assay Medium (Low Glucose medium is used to reduce basal levels of GlcNAcylation) (Park et al. 2014 The Journal of biological chemistry 289:13519). At the day of compound test medium from assay plates was removed and replenished with 90 μl of fresh Assay Medium. 10 μl of compounds at a 10fold final concentration were added to the wells. Plates were centrifuged shortly before incubation in the cell incubator for 6 hours. DMSO concentration was set to 0.2%. Medium is discarded by applying vacuum. For staining of cells medium was removed and cells washed once with 100 μl D-PBS (Sigma, #D8537). From next step onwards unless other stated assay volume was always 50 μl and incubation was performed without agitation and at room temperature. Cells were fixed in 50 μl of a 4% paraformaldehyde (PFA, Alpha aesar, #043368) PBS solution for 15 minutes at room temperature. […] Before analysis samples were washed 2 times manually for 5 minutes in ICC base buffer.
# Imaging is performed using Perkin Elmer Phenix Opera using a water 20× objective and recording 9 fields per well. Intensity readout at 488 nm is used as a measure of O-GlcNAcylation level of total proteins in wells. To assess potential toxicity of compounds nuclei were counted using the Hoechst staining. IC50-values are calculated using parametric non-linear regression model fitting. As a maximum inhibition Thiamet G at a 200 uM concentration is present on each plate. In addition, a concentration response of Thiamet G is calculated on each plate.
row,Emax [%],SMILES
1,64,Cc1cc(C2CCCN(C(C)c3cc4nc(C)sc4cc3F)C2)cc(C)n1 (centres unmarked) [Compound 89]
2,66,Cc1cc(OC[C@H]2CCCN(C(C)c3nc4nc(C)sc4cc3F)C2)cc(C)n1 (some centres unmarked) [Compound 91]
3,28,Cc1cc(O[C@@H]2CCN(C(C)c3nc4nc(C)sc4cc3F)C2)cc(C)n1 (some centres unmarked) [Compound 92]
4,60,Cc1cc(OC[C@H]2CCCN(C(C)c3cc4nc(C)sc4cc3F)C2)cc(C)n1 (some centres unmarked) [Compound 98]
5,32,Cc1cc(C[C@H]2CCN(C(C)c3cnc4[nH]c(C)nc4c3)C2)cc(C)n1 (some centres unmarked) [Compound 102]
6,20,Cc1cc(C[C@H]2CCN(C(C)c3cnc4[nH]c(C)nc4c3)C2)cc(C(F)(F)F)n1 (some centres unmarked) [Compound 104]
7,14,Cc1cc(NCC2CCCN(C(C)c3ccc4sc(C)nc4n3)C2)cc(C)n1 (centres unmarked) [Compound 105]
8,60,COc1cc(CN[C@H]2CCCN(C(C)c3ccc4sc(C)nc4n3)C2)cc(C)n1 (some centres unmarked) [Compound 107]

# Same assay, conditions: HEK293 cells inducible for P301L mutant human Tau, 6 hours incubation; read-out: Cellular hOGA; pEC50 (converted)
row,EC50 [nM],SMILES
1,15.8,Cc1cc(C2CCCN(C(C)c3cc4nc(C)sc4cc3F)C2)cc(C)n1 (centres unmarked) [Compound 89]
2,7.94,Cc1cc(OC[C@H]2CCCN(C(C)c3nc4nc(C)sc4cc3F)C2)cc(C)n1 (some centres unmarked) [Compound 91]
3,> 1000,Cc1cc(O[C@@H]2CCN(C(C)c3nc4nc(C)sc4cc3F)C2)cc(C)n1 (some centres unmarked) [Compound 92]
4,12.6,Cc1cc(OC[C@H]2CCCN(C(C)c3cc4nc(C)sc4cc3F)C2)cc(C)n1 (some centres unmarked) [Compound 98]
5,> 1000,Cc1cc(C[C@H]2CCN(C(C)c3cnc4[nH]c(C)nc4c3)C2)cc(C)n1 (some centres unmarked) [Compound 102]
6,> 1000,Cc1cc(C[C@H]2CCN(C(C)c3cnc4[nH]c(C)nc4c3)C2)cc(C(F)(F)F)n1 (some centres unmarked) [Compound 104]
7,> 1000,Cc1cc(NCC2CCCN(C(C)c3ccc4sc(C)nc4n3)C2)cc(C)n1 (centres unmarked) [Compound 105]
8,794,COc1cc(CN[C@H]2CCCN(C(C)c3ccc4sc(C)nc4n3)C2)cc(C)n1 (some centres unmarked) [Compound 107]

# Reference: patent publication US20210115040A1, “OGA INHIBITOR COMPOUNDS” (Janssen Pharmaceutica NV, priority 2018, published 2021)
